Data on 17 compounds can be found in ChEMBL document CHEMBL1132799, “Hybridization of non-sulfonylurea insulin secretagogue and thiazolidinedione-derived insulin sensitizer” (2000).

Assay [1] is described as follows: Insulin-releasing activity in HIT-T15 cells in the presence of 16.7 mM glucose at 10 uM expressed as percent activity of nateglinide. The class given is functional, Cricetulus griseus.
The subject of assay [2] is 3T3-L1. Kind of assay: Insulin-sensitizing activity; triglyceride accumulation from insulin regulated differentiation of 3T3-L1 cells at 1 uM expressed as percent activity of pioglitazone. Type of assay: functional, Mus musculus.
Assay [3] concerns 3T3-L1. Kind of assay: Compound was tested for insulin-sensitizing activity by measuring triglyceride accumulation from insulin regulated differentiation of 3T3-L1 cells at 10 uM expressed as percent activity of pioglitazone. The class given is functional, Mus musculus.

Consider `Cc1oc(-c2ccccc2)nc1CCOc1ccc(/C=C(\CC(=O)N2C[C@H]3CCCC[C@H]3C2)C(=O)O)cc1`, for which the Activity in assay [1] came out at 145%; in assay [2], 103%.
In the case of `CCc1ccc(CCOc2ccc(C[C@@H](CC(=O)N3C[C@H]4CCCC[C@H]4C3)C(=O)O)cc2)nc1`, the figures for the Activity in assay [1], in assay [2] and in assay [3] were 105%, 4% and 11%, respectively.
As for `CN(CCOc1ccc(/C=C(\CC(=O)N2C[C@H]3CCCC[C@H]3C2)C(=O)O)cc1)c1ccccn1`, the figures for the Activity in assay [1] and in assay [2] were 60% and 87%, respectively.
On the same counts, the results for `O=C(O)/C(=C\c1ccc(OCCc2ccc(C(F)(F)F)cc2)cc1)CC(=O)N1C[C@H]2CCCC[C@H]2C1` are 93% and 5%.
Regarding `CC(C)[C@H]1CC[C@H](C(=O)N[C@H](Cc2ccccc2)C(=O)O)CC1` [NATEGLINIDE], the Activity in assay [1] was 100%; in assay [2], 6%; in assay [3], 40%.
Consider `Cc1oc(C2CCCCC2)nc1CCOc1ccc(/C=C(\CC(=O)N2C[C@H]3CCCC[C@H]3C2)C(=O)O)cc1`, for which the Activity in assay [1] was 93%; in assay [2], 83%.
On to `CCc1ccc(CCOc2ccc(/C=C(\CC(=O)N3C[C@H]4CCCC[C@H]4C3)C(=O)O)cc2)nc1`, for which the figures for the Activity in assay [1], in assay [2] and in assay [3] were 136%, 20% and 50%, respectively.
For the compound `O=C(O)/C(=C\c1ccc(OCCCc2ccc(C(F)(F)F)cc2)cc1)CC(=O)N1C[C@H]2CCCC[C@H]2C1`, the results for the Activity in assay [1] and in assay [2] were 130% and 4%, respectively.
For `Cc1oc(-c2ccncc2)nc1CCOc1ccc(/C=C(\CC(=O)N2C[C@H]3CCCC[C@H]3C2)C(=O)O)cc1` the same measures were 49% and 93%.
As to `CCc1ccc(CCOc2ccc(C[C@H](CC(=O)N3C[C@H]4CCCC[C@H]4C3)C(=O)O)cc2)nc1`, the Activity in assay [1] came out at 1%; in assay [2], 17%; in assay [3], 55%.
Turning to `O=C(O)/C(=C\c1ccc(OCc2ccc(C(F)(F)F)cc2)cc1)CC(=O)N1C[C@H]2CCCC[C@H]2C1`, the Activity in assay [1] was 130%; in assay [2], 15%.
For `O=C(O)/C(=C/c1ccc(OCCn2ccc3ccccc32)cc1)CC(=O)N1C[C@H]2CCCC[C@H]2C1` the same measures were 105% and 9%.
For `CCc1ccc(CCOc2ccc(CC(CC(=O)N3C[C@H]4CCCC[C@H]4C3)C(=O)O)cc2)nc1` (stereo partly specified), the Activity in assay [1] stood at 68%; in assay [2], 8%; in assay [3], 30%.
On to `Cc1oc(-c2ccccc2)nc1CCOc1ccc(CC(CC(=O)N2C[C@H]3CCCC[C@H]3C2)C(=O)O)cc1` (stereo partly specified), for which the Activity in assay [1] came to 85%; in assay [2] it was 45%.
`CCc1ccc(CCOc2ccc(CC3SC(=O)NC3=O)cc2)nc1` (stereo unspecified) [PIOGLITAZONE]: the Activity in assay [1] is 10%; in assay [2], 100%; in assay [3] it was 100%.
`CN(CCOc1ccc(/C=C(\CC(=O)N2C[C@H]3CCCC[C@H]3C2)C(=O)O)cc1)c1nc2ccccc2o1`: the Activity turned out to be 60% in assay [1] and 121% in assay [2].
With `CCc1ccc(CCOc2ccc(CC(NC(=O)[C@H]3CC[C@H](C(C)C)CC3)C(=O)O)cc2)nc1` (stereo partly specified), the figures for the Activity in assay [1], in assay [2] and in assay [3] were 33%, 2% and 30%, respectively.
